Results reported in ChEMBL document CHEMBL3046383, “Enantioselective Herbicidal Activity of Chiral α-Methylbenzylphenylureas against Cyperaceae and Echinochloa Paddy Weeds” (Biosci Biotechnol Biochem, 1998).
Calls of active or inactive are those of the source. The rule behind the calls is not given here.

Key:
Oryza sativa [1] = experiment: Phytotoxicity against directly seeded Oryza sativa (rice) seedlings assessed as phytotoxic activity ratings (0- no effect to 5-complete killing rating scale) at 100 g/a measured after 3 weeks post compound treatment under green house conditions; type: organism-based; details: in vivo, 504 h
Oryza sativa [2] = experiment: Phytotoxicity against transplanted Oryza sativa (rice) seedlings assessed as phytotoxic activity ratings (0- no effect to 5-complete killing rating scale) at 100 g/a measured after 3 weeks post compound treatment under green house conditions; type: organism-based; details: in vivo, 504 h
Echinochloa oryzicola = experiment: Herbicidal activity against Echinochloa oryzicola assessed as phytotoxic activity ratings (0- no effect to 5-complete killing rating scale) at 100 g/a measured after 3 weeks post compound treatment under green house conditions; type: functional
Cyperus difformis = experiment: Herbicidal activity against Cyperus difformis assessed as phytotoxic activity ratings (0- no effect to 5-complete killing rating scale) at 100 g/a measured after 3 weeks post compound treatment under green house conditions; type: functional
Cyperus serotinus = experiment: Herbicidal activity against Cyperus serotinus assessed as phytotoxic activity ratings (0- no effect to 5-complete killing rating scale) at 3.1 to 100 g/a measured after 3 weeks post compound treatment under green house conditions; type: functional
[3] = tested on: Schoenoplectiella juncoides; experiment: Herbicidal activity against Schoenoplectiella juncoides var. Hotarui Ohwi assessed as phytotoxic activity ratings (0- no effect to 5-complete killing rating scale) at 100 g/a measured after 3 weeks post compound treatment under green house conditions; type: functional

Row | Structure (SMILES) | Activity (Oryza sativa [1]) [%] | Activity (Oryza sativa [2]) [%] | Activity (Echinochloa oryzicola) [%] | Activity (Cyperus difformis) [%] | Activity (Cyperus serotinus) | Activity [3] [%]
1 | C[C@H](NC(=O)Nc1ccc(I)cc1)c1ccccc1 | 0 | 0 | 0 | 0 | inactive | 0
2 | C[C@H](NC(=O)Nc1cc(F)cc(F)c1)c1ccccc1 | – | 0 | 10 | 0 | inactive | 0
3 | CCOC(=O)c1ccc(NC(=O)N[C@H](C)c2ccccc2)cc1 | 0 | 0 | 0 | 0 | inactive | 0
4 | CC(=O)c1ccccc1NC(=O)N[C@H](C)c1ccccc1 | 0 | 0 | 0 | 0 | inactive | 0
5 | C[C@@H](NC(=O)Nc1cc(F)cc(F)c1)c1ccccc1 | 0 | 0 | 0 | 0 | inactive | 0
6 | C[C@H](NC(=O)Nc1ccc(F)cc1)c1ccccc1 | 0 | 0 | 0 | 0 | inactive | 0
7 | C[C@H](NC(=O)Nc1cc(C(C)(C)C)ccc1C(C)(C)C)c1ccccc1 | 0 | 0 | 0 | 0 | inactive | –
8 | C[C@H](NC(=O)Nc1ccc(C(F)(F)F)cc1)c1ccccc1 | 0 | 0 | 0 | 0 | inactive | 0
9 | C[C@H](NC(=O)Nc1cc(C(F)(F)F)cc(C(F)(F)F)c1)c1ccccc1 | 0 | 0 | 0 | 0 | inactive | 0
10 | C[C@H](NC(=O)Nc1ccccc1I)c1ccccc1 | 0 | 0 | 0 | 10 | inactive | 0
11 | C[C@H](NC(=O)Nc1ccc(F)c(F)c1)c1ccccc1 | 0 | 0 | 0 | 0 | inactive | 0
12 | C[C@H](NC(=O)Nc1cccc(Br)c1)c1ccccc1 | 0 | 0 | 0 | 10 | inactive | 0
13 | C[C@H](NC(=O)Nc1cccc(C(F)(F)F)c1F)c1ccccc1 | 0 | 0 | 0 | 0 | inactive | 0
14 | CCOC(=O)c1cccc(NC(=O)N[C@@H](C)c2ccccc2)c1 | 0 | 0 | 0 | 0 | inactive | 0
15 | C[C@H](NC(=O)Nc1ccc(Br)cc1)c1ccccc1 | 0 | 0 | 0 | 0 | inactive | –
16 | CCCCCCc1ccc(NC(=O)N[C@H](C)c2ccccc2)cc1 | 0 | 0 | 0 | 0 | inactive | 0

Row | Structure (SMILES) | Activity (Oryza sativa [1]) [%] | Activity (Oryza sativa [2]) [%] | Activity (Echinochloa oryzicola) [%] | Activity (Cyperus difformis) [%] | Activity (Cyperus serotinus) | Activity [3] [%]
17 | CC(=O)c1ccccc1NC(=O)N[C@@H](C)c1ccccc1 | 0 | 0 | 0 | 0 | inactive | 0
18 | CCOC(=O)c1ccccc1NC(=O)N[C@@H](C)c1ccccc1 | 0 | 0 | 10 | 0 | inactive | 0
19 | C[C@@H](NC(=O)Nc1ccc(C(F)(F)F)cc1)c1ccccc1 | 0 | 0 | 0 | 0 | inactive | 0
20 | CCCCCCCc1ccc(NC(=O)N[C@H](C)c2ccccc2)cc1 | 0 | 0 | 0 | 0 | inactive | 0
21 | CCc1cccc(CC)c1NC(=O)N[C@H](C)c1ccccc1 | 0 | 0 | 0 | 0 | inactive | 0
22 | C[C@H](NC(=O)Nc1ccc(Cl)cc1)c1ccccc1 | 0 | 0 | 0 | 0 | inactive | 0
23 | C[C@H](NC(=O)Nc1ccccc1Cl)c1ccccc1 | 0 | 0 | 0 | 10 | inactive | 0
24 | CC(C)c1ccc(NC(=O)N[C@H](C)c2ccccc2)cc1 | 0 | 0 | 0 | 0 | inactive | 0
25 | Cc1ccc(NC(=O)N[C@H](C)c2ccccc2)c(F)c1 | 0 | 0 | 0 | 0 | inactive | 0
26 | C[C@@H](NC(=O)Nc1ccc(C(C)(C)C)cc1)c1ccccc1 | 0 | 0 | 10 | 0 | inactive | 0
27 | C[C@H](NC(=O)Nc1cccc(F)c1)c1ccccc1 | 10 | 0 | 10 | 10 | inactive | 0
28 | CC(=O)c1ccc(NC(=O)N[C@@H](C)c2ccccc2)cc1 | 0 | 0 | 0 | 0 | inactive | 0
29 | CCCCCCc1ccc(NC(=O)N[C@@H](C)c2ccccc2)cc1 | 0 | 0 | 0 | 0 | inactive | 0
30 | CCCc1ccc(NC(=O)N[C@@H](C)c2ccccc2)cc1 | 0 | 0 | 10 | 40 | – | 0
31 | C[C@@H](NC(=O)Nc1cccc(C(F)(F)F)c1F)c1ccccc1 | 0 | 0 | 0 | 0 | inactive | –
32 | C[C@@H](NC(=O)Nc1ccccc1I)c1ccccc1 | 0 | 0 | 0 | 10 | inactive | –
